These results are taken from patent US11559590B2, “Granzyme B directed imaging and therapy” (The General Hospital Corporation, priority 2016, dated 2023).

The target in data set [1] is T1, granzyme B (Mus musculus, UniProt P04187).
T1 sequence (P04187 21-247): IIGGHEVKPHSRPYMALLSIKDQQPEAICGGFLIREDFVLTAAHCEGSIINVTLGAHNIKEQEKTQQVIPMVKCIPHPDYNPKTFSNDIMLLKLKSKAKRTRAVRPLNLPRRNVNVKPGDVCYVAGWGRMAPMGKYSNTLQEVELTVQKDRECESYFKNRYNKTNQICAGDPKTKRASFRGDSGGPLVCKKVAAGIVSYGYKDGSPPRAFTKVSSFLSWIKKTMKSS
In kind it is in vivo, mice. On the set-up: from tissue; host or cells: CT26 (BALB/C) and MC38 syngeneic tumours in living mice; granzyme B from infiltrating host lymphocytes. As for the experimental part:
For imaging studies, mice were treated with intraperitoneal injection of either vehicle, 200 μg anti-PD-1 murine therapeutic antibody (αPD1), or both 200 μg αPD1 and 100 μg anti-CTLA-4 murine therapeutic antibody (αCTLA-4) on days 3, 6, and 9 following CT-26 tumor inoculation. 1×10^6 BP cells were diluted 1:1 with Matrigel and injected in the right shoulder of female C57BL/6 mice. Once tumors had reached 3-5 mm in diameter, mice were treated with daily oral gavage of vehicle or dabrafenib prepared in aqueous suspension with 0.5% hydroxypropylmethyl cellulose (HPMC) and 0.2% Tween. One day following initiation of BRAF inhibition, mice were additionally randomized to intraperitoneal injection with 200 μg αPD1 as specified. Mice were sacrificed on specified day either for Western blot and immunohistochemistry alone, or following imaging for correlative analysis. Mice were imaged on a GE Triumph PET/CT. Following CT acquisition, PET images were obtained for 15 min in 2 bed positions. Images were constructed using 3D-OSEM (4 iterations, 16 subsets) and corrected for scatter and randoms. The mean standard uptake value (SUVmean) for each tumor was calculated in a 3D region of interest auto-drawn around the tumor using a 30% isocontour threshold. Region of interests were also calculated for left ventricle, liver lung, muscle, and kidney. Images were post-processed using VivoQuant (InviCRO, Boston, Mass.). On day 14 post-inoculation, mice were injected with ˜37 MBq of purified ^68Ga-NOTA-GP intravenously and imaged at 1 h post-injection. […] The mean TBR of treated mice was calculated at 1.69±0.26, whereas the mean TBR of untreated mice was 0.93±0.11, a significant increase (83%, P<0.05) from untreated to treated mice, as shown in FIG. 11. ^68Ga-NOTA-GP uptake was observed across both treated and untreated tumors.

Data set [2] deals with CT26 tumors. The data set can be described thus: Ex vivo tumor to blood ratio by gamma counter in CT26 tumor bearing mice. Particulars: day 14, 1 h post-injection. As for the experimental part:
After confirming the ^68Ga-NOTA-GP bound to purified granzyme B and specifically accumulated in target cells, the in vivo tumor accumulation was investigated in CT26 tumor bearing mice using the same model used to generate the Western blot data from Example 2 (see FIG. 1). On day 14 post-inoculation, mice were injected with […] of ^68Ga-NOTA-GP and mice were sacrificed at 1 h following injection. Tumors and blood were collected from 7 mice that were treated with combination therapy (ant-PD-1 and CTLA-4). The tumors were grouped based on size as either responders (mass<[…]) or non-responders (mass≥[…]) The amount of radioactive ^68Ga-NOTA-GP in both the tumor and blood were quantified using a gamma counter and the adjusted based on mass and the ratio of injected dose per gram of tumor to blood (TBR) was plotted for tumors in each group.

The next data set relates to CT26 cells. Put plainly: Binding of ^68Ga-NOTA-GP to CT26 cells with or without pre-incubation with granzyme B. In kind it is cell-based. The following applies: 100 μCi/mL, pre-incubated with granzyme B (60 nM) or vehicle, 30 min. The protocol:
CT26 cells were plated in 96 well plates and grown to 70% confluency. ^68Ga-NOTA-GP was diluted to 100 μCi/mL in 1% BSA plus RPMI buffer and either pre-incubated with granzyme B (60 nM) or vehicle prior to addition to wells. The peptide was incubated with cells for 30 min prior to washing and elution with 2M NaOH.

Data set [3] in a line: Ex vivo bio-distribution at 1 h and 2 h post-injection. The following applies: mouse, tumor, iv, 1 mCi, total radioactivity; for tissue uptake at 1 h: 1 h post-injection; for tissue uptake at 2 h: 2 h post-injection. It is filed as in vivo, mice. The protocol: (§1) Following injection with ˜1 mCi of ^68Ga-NOTA-GP (see Example 1) via tail-vein mice were sacrificed at either one-hour or two-hour time-points. Mouse urine, blood, tumor, and vital organs were sampled, and radioactivity assessed on a gamma-counter.
(§2) Following imaging, mice were sacrificed and tumoral GZB expression quantified by Western blot. […] Tumoral uptake of treated tumors was measured at 1.15% ID/g at 1 h and 1.02% ID/g at 2 h in comparison to 0.70 and 0.55% ID/g in untreated control tumors, as shown in FIG. 7B.

Data set [4] has as its system CT26 tumors. Described as above. The following applies: 1 h and 2 h post-injection. In kind it is in vivo, mice. As for the experimental part: as §1, §2
The target of data set [5] is T1, granzyme B. The data set can be described thus: Binding of ^68Ga-NOTA-GP to purified granzyme B adsorbed to plates vs BSA. On the set-up: purchased R&D systems. The following applies: 1 h binding, bound tracer counted by gamma counter, 6 replicates. As for the experimental part:
Granzyme B was adsorbed to plates and the plates were blocked with non-fat milk. The ^68Ga-NOTA-GP was permitted to bind for 1 h, the wells washed, and bound ^68Ga-NOTA-GP recovered by incubation with 2N NaOH and counted by gamma counter. […] The bars in FIG. 4 represent the mean of 6 replicates±SD.

The target in data set [6] is T1, granzyme B. Put plainly: Response prediction using granzyme B PET imaging across CT26 and MC38 models. On the set-up: from tissue; host or cells: CT26 (BALB/C) and MC38 syngeneic tumours in living mice; granzyme B from infiltrating host lymphocytes. It is filed as in vivo, mice. Particulars: CT26 and MC38, all therapies. From the text: As a measure of the accuracy of granzyme B PET (i.e., GZP PET) imaging-based response prediction across multiple tumor models and therapies described in Examples 9-11, classifications of uptake using TBR thresholds of 1.27 for CT26 tumors and 1.45 for MC38 tumors were utilized. […] This reflects an overall sensitivity and specificity of 93% and 89% respectively for the ability of ^68Ga-GZP PET to predict immunotherapy response.

The next data set relates to tumor. Particulars: mouse, in vivo.
The target in data set [7] is T2, human granzyme B (Homo sapiens, UniProt P10144).
T2 construct: from tissue; host or cells: formalin-fixed paraffin-embedded human melanoma biopsy sections
T2 sequence (P10144 21-247): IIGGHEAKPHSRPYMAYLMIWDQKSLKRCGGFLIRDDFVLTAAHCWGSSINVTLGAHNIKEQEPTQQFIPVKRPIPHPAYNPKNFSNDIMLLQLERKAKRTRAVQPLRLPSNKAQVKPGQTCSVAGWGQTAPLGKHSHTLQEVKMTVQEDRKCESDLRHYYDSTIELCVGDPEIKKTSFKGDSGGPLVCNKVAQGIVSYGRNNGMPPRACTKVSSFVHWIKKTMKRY
The data set can be described thus: Immunohistochemistry and immunofluorescence of human melanoma specimens with hGZP. It is filed as binding. Particulars: treated responder melanoma samples, IHC and immunofluorescence. As for the experimental part:
Immunohistochemistry was performed on formalin-fixed paraffin-embedded sections following standard antigen retrieval in citrate buffer. Granzyme B expression was detected with either an anti-Granzyme B antibody (ab5049, Abcam) or a biotinylated and humanized version of GZP (hGZP, see Example 1A). Bound antibody was detected with either HRP-conjugated goat anti-rabbit antibody and reacted with DAB substrate for IHC staining or AlexaFluor 488 goat anti-rabbit or AlexaFluor 594 goat anti-rabbit antibodies (Life Technologies) for immunofluorescent visualization. Bound peptide was detected with either HRP-conjugated streptavidin (Abcam) followed by reaction with DAB substrate or Oregon green conjugated neutravidin (Life Technologies). […] Fluorescence quantification was performed using ImageJ software (National Institutes of Health, Bethesda, Md.).
(§3) A cohort of 9 human melanoma biopsy samples obtained from patients treated with anti-PD-1 checkpoint inhibitors (n=6 nivolumab and n=3 pembrolizumab), which were retrospectively correlated with response based on modified RECIST criteria. […] To quantify the degree and magnitude of difference between treated responders and nonresponders, quantitative fluorescent microscopy was performed. […]

The target of data set [8] is T3, human granzyme B (human, UniProt P10144 21-247).
T3 construct: Endogenous protein in tissue sections, not purified; also called granzyme B in human melanoma tissue
T3 sequence (P10144 21-247 limits assumed): as the sequence (P10144 21-247) above
Put plainly: immunohistochemistry and immunofluorescence on human melanoma sections, compared with anti-granzyme B antibody. The protocol: Immunohistochemistry was performed on formalin-fixed paraffin-embedded sections following standard antigen retrieval in citrate buffer. Granzyme B expression was detected with either an anti-Granzyme B antibody (ab5049, Abcam) or a biotinylated and humanized version of GZP (hGZP, see Example 1A). Bound antibody was detected with either HRP-conjugated goat anti-rabbit antibody and reacted with DAB substrate for IHC staining or AlexaFluor 488 goat anti-rabbit or AlexaFluor 594 goat anti-rabbit antibodies (Life Technologies) for immunofluorescent visualization.
Bound peptide was detected with either HRP-conjugated streptavidin (Abcam) followed by reaction with DAB substrate or Oregon green conjugated neutravidin (Life Technologies). […] Fluorescence quantification was performed using ImageJ software (National Institutes of Health, Bethesda, Md.).
as §3

The target in data set [9] is Granzyme B (purified, R&D Systems). The data set can be described thus: in vitro granzyme B enzyme activity inhibition (cleavage of BOC-Ala-Ala-Asp-SBZL, absorbance at 405 nm).

Read-outs that look alike come from different tables or passages of the source. Non-standard residues stand in square brackets, D forms with d. Residues, ends and D or L forms follow the SMILES beside them. Primed or numbered codes have the meaning given here. No end group written: not given here. *: point of attachment. X1 = O=C(O)CN1CCN(CC(=O)O)CC(Cc2ccc(NC(=S)*)cc2)N(CC(=O)O)CC1; PEG27′ = polyethylene glycol linker of 27 —(OCH2CH2)— units; Biotin = O=C1N[C@H]2[C@H](CS[C@H]2CCCCC(=O)*)N1; NOTA = O=C(O)CN1CCN(CC(=O)O)CCN(CC(=O)*)CC1; βAla = NCCC(=O)O

With `CCC(C)C(NC(=O)CNC(=O)CNC(=O)CNC(=S)Nc1ccc(CC2CN(CC(=O)O)CCN(CC(=O)O)CCN2CC(=O)O)cc1)C(=O)NC(CCC(=O)O)C(=O)NC(Cc1ccccc1)C(=O)NC(C=O)CC(=O)O` (stereo not drawn) [^68Ga-NOTA-GP, metal not drawn] (X1-GGGIEFD-aldehyde; configuration not given here), the “correlation of TBR with tumoral GZB expression (Western blot)” value at granzyme B [1] (P<0.001) is “significant correlation between uptake and GZB expression”. The “increase of mean TBR from untreated to treated mice” value at granzyme B [1] (mouse, in vivo) amounted to 83%. In addition, the “mean TBR (tumor to left ventricle) by PET, treated mice” value on granzyme B [1] (mouse, in vivo) is reported as 1.69±0.26. The “mean TBR (tumor to left ventricle) by PET, untreated mice” value at granzyme B [1] (mouse, in vivo) was 0.93±0.11. Besides, the “tumor to blood ratio (TBR), injected dose per gram, responders” value in the data set with CT26 tumors [2] (combination therapy (anti-PD-1 and CTLA-4) treated mice, responders (mass<0.8 mg)) is 6.06-13.74. Further, the “tumor to blood ratio (TBR), injected dose per gram, non-responders” value in the data set with CT26 tumors [2] (combination therapy treated mice, non-responders (mass≥0.8 mg)) is recorded as 0.95-2.48. Moreover, the “binding/uptake in CT26 cells” value in the data set with CT26 cells was “binds granzyme B and is taken up specifically by cancer cells”. The tissue uptake at 1 h came to 1.15 %ID/g in data set [3] (treated tumors, read-out: tumoral uptake, treated tumors, 1 h) and 0.7 %ID/g in data set [3] (untreated control tumors, read-out: tumoral uptake, untreated control tumors, 1 h). Further, the tissue uptake at 2 h came to 1.02 %ID/g in data set [3] (treated tumors, read-out: tumoral uptake, treated tumors, 2 h) and 0.55 %ID/g in data set [3] (untreated control tumors, read-out: tumoral uptake, untreated control tumors, 2 h). In the data set with CT26 tumors [4], the clearance result is on record as “rapid renal clearance”. For the same molecule, on granzyme B [5], the “binding to granzyme B compared to control protein (BSA)” value is on record as “significantly (P<0.05) higher binding to granzyme B than to the control protein (BSA)”. Further, the “overall sensitivity to predict immunotherapy response” value on granzyme B [6] (25 of 27 responding mice high-uptake) is 93%. Besides, the “overall specificity to predict immunotherapy response” value on granzyme B [6] (34 of 38 non-responding mice low-uptake) is recorded as 89%.
“NOTA-beta A-G-G-G-T-E-A-A-A-A-S-S-C-F-I-E-F-D-CHO ({NOTA}-[βAla]GGGTEAAAASSCFIEFD-aldehyde; SMILES CC[C@H](C)[C@H](NC(=O)[C@H](Cc1ccccc1)NC(=O)[C@H](CS)NC(=O)[C@H](CO)NC(=O)[C@H](CO)NC(=O)[C@H](C)NC(=O)[C@H](C)NC(=O)[C@H](C)NC(=O)[C@H](C)NC(=O)[C@H](CCC(=O)O)NC(=O)[C@@H](NC(=O)CNC(=O)CNC(=O)CNC(=O)CCNC(=O)CN1CCN(CC(=O)O)CCN(CC(=O)O)CC1)[C@@H](C)O)C(=O)N[C@@H](CCC(=O)O)C(=O)N[C@@H](Cc1ccccc1)C(=O)N[C@H](C=O)CC(=O)O) [GZPSERP]”: in the data set on tumor, the “aggregation and liver uptake” value was “significant aggregation and high liver uptake”; the “tumor to background ratios” value was “much lower tumor to background ratios”.
In the case of “NOTA-beta A-PEG27-G-G-G-I-E-F-D ({NOTA-βAla-PEG27′}-GGGIEFD) [GZPPEG]”, the tumor uptake kinetics result with tumor is reported as “almost identical tumor uptake kinetics to NOTA-GP”.
Consider {Biotin-βAla}-GGGIEPD-aldehyde [hGZP], for which the “binding to granzyme B in human tissue compared with anti-granzyme B antibody” value at human granzyme B [7] is recorded as “highly specific binding of hGZP to human granzyme B”.

B1: Biotin-beta-Ala-Gly-Gly-Gly-Ile-Glu-Pro-Asp-CHO (peptide)
peptide: Biotin-[βAla]GGGIEPD-aldehyde
SMILES: CC[C@H](C)[C@H](NC(=O)CNC(=O)CNC(=O)CNC(=O)CCNC(=O)CCCC[C@@H]1SC[C@@H]2NC(=O)N[C@@H]21)C(=O)N[C@@H](CCC(=O)O)C(=O)N1CCC[C@H]1C(=O)N[C@H](C=O)CC(=O)O
notes: also called hGZP; biotinylated human granzyme B peptide
Turning to B1, the binding result with human granzyme B [8] was “binds”.

B2: NOTA-beta-Ala-Gly-Gly-Ile-Glu-Phe-Asp-CHO (nonradioactive gallium-labeled) (peptide)
peptide: {NOTA}-[βAla]GGIEFD-aldehyde
modifications: also: NOTA complexed with nonradioactive gallium
By Ki is commonly meant the dissociation constant of the complex between target and ligand, obtained from inhibition or displacement. A high value points to lower affinity. In turn, B2 showed a Ki in data set [9] of 47 nM.
